Test results from patent US5354862A, “Preparation and the use of halopropargylated cyclic quaternary ammonium compounds as antimicrobial agents” (Rohm and Haas Company, priority 1993, dated 1994).
Like-named read-outs stand apart in the source and are kept apart here.

Columns and labels:
Assay in all cases: Broth two-fold serial dilution MIC test
[1] = system: Escherichia coli; assay type: cell-based, Escherichia coli (ATCC 11229); settings: Ecol
Text: (§1) A minimum inhibitory concentration (MIC) value is obtained using a broth, two-fold serial dilution test performed as follows: A stock solution or dispersion of the test compound, typically at a concentration of 1%, is made in a 5:3:2 solvent solution of acetone. methanol, and water. A volume of the stock solution is dispensed into culture media to give an initial starting test concentration of 500 ppm compound.
(§2) When the test is ready to be done, each vessel in the dilution series, except the first vessel, contains an equal volume of compound free broth. The first vessel contains twice the volume of broth with the starting concentration of test compound. One half of the broth from the first vessel is transferred to the second vessel- After being mixed, one half the resulting volume is removed from the second vessel and transferred to the third vessel. The entire cycle is repeated sufficiently to give a series of concentrations amounting to 500, 250, 125, 63, 31, 16, 8, and 4, 2, 1, 0.5, 0.25 ppm respectively.
(§3) Each vessel is then inoculated with a cell suspension of the appropriate test organism. Bacteria are grown in broth, fungi on agar slants for a time and at a temperature appropriate to the species being tested, and algae are a mixture of green algae and blue-green bacteria grown in a nutrient media. At the end of the growth period, in the case of bacteria, the broth is vortexed to disperse the cells.
(§4) In the case of fungi, the spores are harvested by pipetting water onto the slant and dislodging the spores with a sterile loop. The cell/spore suspension is standardized by controlling incubation time, temperature, and the volume of the diluent. The suspension is then used to inoculate the vessels containing the broth compound.
(§5) The vessels are then incubated at the appropriate temperature. After the incubation, the vessels are examined for growth/no growth. The minimum inhibitory concentration (MIC) is defined as the lowest concentration of compound that results in complete inhibition of growth of the test organism.

[2] = system: Staphylococcus aureus; assay type: cell-based, Staphylococcus aureus (ATCC 6538); settings: Saur
Text: as §1, §2, §3, §4, §5
2. Staphylococcus aureus

[3] = system: Aspergillus niger; assay type: cell-based, Aspergillus niger (ATCC 6275); settings: Anig, TSB media
Text: as §1, §2, §3, §4, §5
4. Aspergillus niger 6275 Anig

[4] = system: Pseudomonas aeruginosa; assay type: cell-based, Pseudomonas aeruginosa (ATCC 15442); settings: Psae
Text: as §1, §2, §3, §4, §5
1. Pseudomonas aeruginosa

[5] = Aspergillus niger, Table 2, read-out: MIC
[6] = Pseudomonas aeruginosa, Table 2, M9G media, read-out: MIC
[7] = Pseudomonas aeruginosa, Table 2, TSB media, read-out: MIC
[8] = Escherichia coli, Table 2, M9G media, read-out: MIC
[9] = Escherichia coli, Table 2, TSB media, read-out: MIC
[10] = Staphylococcus aureus, Table 2, M9G media, read-out: MIC
[11] = Staphylococcus aureus, Table 2, TSB media, read-out: MIC

MIC ([1]; Table 2, M9G media) | MIC ([1]; Table 2, TSB media) | MIC ([2]; Table 2, M9G media) | MIC ([2]; Table 2, TSB media) | MIC ([3]; Table 2) | MIC ([4]; Table 2, M9G media) | MIC ([4]; Table 2, TSB media) | MIC [3, 5] | MIC [4, 6] | MIC [4, 7] | MIC [2, 10] | MIC [2, 11] | Structure (SMILES) | also measured
2 ppm | 4 ppm | 0.25 ppm | 0.25 ppm | 4 ppm | 16 ppm | 64 ppm | – | – | – | – | – | CCCCCCCCCCCCCC[N+]1(CC#CI)CCCC1 [Compound 87, 1.-tetradecyl-1-(3-iodopropargyl)-pyrrolidinium n-butylsulfonate] | –
16 ppm | 32 ppm | 2 ppm | 16 ppm | – | – | – | 4 µg/mL | 250 µg/mL | 500 µg/mL | – | – | CCCCCCCCCC[N+]1(CC#CI)CCCC1 [Compound 11] | –
– | – | – | – | – | – | – | 4 µg/mL | 8 µg/mL | 32 µg/mL | 0.25 µg/mL | 0.25 µg/mL | CCCCCCCCCCCCCCC[N+]1(CC#CI)CCOCC1 [Compound 88, 4-pentadecyl-4-(3-iodopropargyl)-morpholinium methanesulfonate] | MIC [1, 8]: 2 µg/mL; MIC [1, 9]: 4 µg/mL
2 ppm | 8 ppm | 0.5 ppm | 8 ppm | 125 ppm | 125 ppm | 250 ppm | – | – | – | – | – | CCCCCCCCCCOC(=O)C[N+]1(CC#CI)CCOCC1 [Compound 67, 4-(decyloxycarbonyl)methyl-4-(3-iodopropargyl)-morpholinium benzenesulfonate] | –
64 ppm | – | – | – | – | – | – | 125 µg/mL | > 500 µg/mL | > 500 µg/mL | 4 µg/mL | 16 µg/mL | CCCCCCOC(=O)CCCCC[N+]1(CC#CI)CCOCC1 [Compound 81] | MIC [1, 9]: 64 µg/mL
– | – | – | – | – | – | – | 16 µg/mL | 250 µg/mL | 500 µg/mL | 8 µg/mL | 16 µg/mL | CCCCCCCCCCOC(=O)CC[N+]1(CC#CI)CCCC1 [Compound 97, 1-[2-(decyloxycarbonyl)]ethyl-1-(3-iodopropargyl)-pyrrolidinium 4-methylbenzenesulfonate] | MIC [1, 8]: 16 µg/mL; MIC [1, 9]: 32 µg/mL
4 ppm | 4 ppm | 0.25 ppm | 0.25 ppm | – | 4 ppm | 16 ppm | 16 µg/mL | – | – | – | – | CCCCCCCCCCCCCCCC[N+]1(CC#CI)CCCCC1 [Compound 26, 1-(hexadecyl)-1-(3-iodopropargyl)-piperidinium 4-methylbenzenesulfonate] | –
1 ppm | 16 ppm | 0.5 ppm | < 0.25 ppm | 1 ppm | 32 ppm | 32 ppm | – | – | – | – | – | CCCCCCCCCCCCC[N+]1(CC#CI)CCCC1 [Compound 31, 1-tridecyl-1-(3-iodopropargyl)-pyrrolidinium benzenesulfonate] | –
1 ppm | 4 ppm | 0.25 ppm | 0.25 ppm | 8 ppm | 32 ppm | 32 ppm | – | – | – | – | – | CCCCCCCCCCCCOC(=O)C[N+]1(CC#CI)CCCC1 [Compound 64, 1-(dodecyloxycarbonyl)methyl-1-(3-iodopropargyl)-pyrrolidinium benzenesulfonate] | –
16 ppm | 32 ppm | 4 ppm | 8 ppm | 125 ppm | > 500 ppm | > 500 ppm | – | – | – | – | – | CCCCCCOC(=O)CCCCC[N+]1(CC#CI)CCOCC1 [Compound 83, 4-[5-(hexyloxycarbonyl)]pentyl-4-(3-iodopropargyl)-morpholinium methanesulfonate] | –
8 ppm | 16 ppm | 1 ppm | 8 ppm | 1 ppm | 250 ppm | 125 ppm | – | – | – | – | – | CCCCCCCCCCCCCC[N+]1(CC#CI)CCCCC1C (stereo not shown) [Compound 54, 1-(tetradecyl)-1-(3-iodopropargyl)-2-methylpiperidinium 4methylbenzenesulfonate] | –
500 ppm | 250 ppm | – | – | – | – | – | 500 µg/mL | 500 µg/mL | > 500 µg/mL | 250 µg/mL | 250 µg/mL | CCCC[N+]1(CC#CI)CCCC1 [Compound 9, 1-butyl-1-(3-iodopropargyl)-pyrrolidinium 4-methylbenzenesulfonate] | –
– | – | – | – | – | – | – | 250 µg/mL | > 500 µg/mL | > 500 µg/mL | 63 µg/mL | 63 µg/mL | OCCCCCCCCC[N+]1(CC#CI)CCCC1 [Compound 5, 1-(9-hydroxynonyl)-1-(3-iodopropargyl)-pyrrolidinium 4-methylbenzenesulfonate] | MIC [1, 8]: > 500 µg/mL; MIC [1, 9]: > 500 µg/mL
4 ppm | 4 ppm | – | – | < 0.25 ppm | 4 ppm | 4 ppm | – | – | – | 0.5 µg/mL | 0.5 µg/mL | CCCCCCCCCCCCCC[N+]1(CC#CI)CCCC1 [Compound 6, 1-Tetradecyl-1-(3-Iodopropargyl)-Pyrrolidinium 4-Methylbenzenesulfonate] | MIC ([1]; Table 3 comparison, M9G media): 4 ppm; MIC ([1]; Table 3 comparison, TSB media): 4 ppm; MIC ([2]; Staphylococcus aureus, Table 3 comparison, M9G media, read-out: MIC): 0.5 µg/mL; MIC ([2]; Staphylococcus aureus, Table 3 comparison, TSB media, read-out: MIC): 0.5 µg/mL; MIC ([3]; Aspergillus niger, Table 3 comparison, read-out: MIC): < 0.25 µg/mL; MIC ([4]; Pseudomonas aeruginosa, Table 3 comparison, M9G media, read-out: MIC): 4 µg/mL; MIC ([4]; Pseudomonas aeruginosa, Table 3 comparison, TSB media, read-out: MIC): 4 µg/mL
2 ppm | 8 ppm | 0.25 ppm | 2 ppm | 32 ppm | 64 ppm | 125 ppm | – | – | – | – | – | CCCCCCCCCCCCOC(=O)C[N+]1(CC#CI)CCOCC1 [Compound 76, 4-(dodecyloxycarbonyl)methyl-4-(3-iodopropargyl)-morpholinium methanesulfonate] | –
– | – | – | – | – | – | – | 32 µg/mL | 250 µg/mL | > 500 µg/mL | 1 µg/mL | 8 µg/mL | CCCCCCCCCC[N+]1(CC#CI)CCOCC1 [Compound 91, 4-decyl-4-(3-iodopropargyl)-morpholinium methanesulfonate] | MIC [1, 8]: 4 µg/mL; MIC [1, 9]: 8 µg/mL
2 ppm | 8 ppm | 0.5 ppm | 0.5 ppm | 1 ppm | 16 ppm | 125 ppm | – | – | – | – | – | CCCCCCCCCCCCCCCC[N+]1(CC#CI)CCCC1 [Compound 80, 1-hexadecyl-1-(3-iodopropargyl)-pyrrolidinium bromide] | –
– | 2 ppm | – | – | 1 ppm | 4 ppm | 8 ppm | – | – | – | < 0.25 µg/mL | < 0.25 µg/mL | CCCCCCCCCCCCCCCC[N+]1(CC#CI)CCCC1 [Compound 7, 1-hexadecyl-1-(3-iodopropargyl)-pyrrolidinium 4-methylbenzenesulfonate] | MIC [1, 8]: 4 µg/mL
– | – | – | – | 125 ppm | – | – | – | > 500 µg/mL | > 500 µg/mL | 2 µg/mL | 8 µg/mL | CCCCCCOC(=O)CCCCC[N+]1(CC#CI)CCCC1 [Compound 82, 1-[5-(hexyloxycarbonyl)]pentyl-1-(3-iodopropargyl)-pyrrolidinium 4-methylbenzenesulfonate] | MIC [1, 8]: 32 µg/mL; MIC [1, 9]: 64 µg/mL
4 ppm | 8 ppm | 0.5 ppm | 4 ppm | 8 ppm | 125 ppm | > 500 ppm | – | – | – | – | – | CCCCCCCCCCCCCC[N+]1(CC#CI)CCNC1.O=S(=O)([O-])c1ccccc1 (stereo not shown) [Compound 58, 3-(tetradecyt)-3-(3-iodopropargyl)-imidazolidinium benzenesulfonate] | –

Structure (SMILES) | MIC ([1]; Table 2, M9G media) | MIC ([1]; Table 2, TSB media) | MIC ([2]; Table 2, M9G media) | MIC ([2]; Table 2, TSB media) | MIC ([3]; Table 2) | MIC ([4]; Table 2, M9G media) | MIC ([4]; Table 2, TSB media) | MIC [3, 5] | MIC [4, 6] | MIC [4, 7] | MIC [2, 10] | MIC [2, 11] | also measured
CCCCCCCCCCCCCC[N+]1(CC#CI)CCOCC1 [Compound 72, 4-tetradecyl-4-(3-iodopropargyl)-rnorpholinium iodide] | 0.5 ppm | 4 ppm | 0.25 ppm | 0.25 ppm | 4 ppm | 16 ppm | 64 ppm | – | – | – | – | – | –
